Laboratory results published in patent US11385234B2, “Methods and systems for detecting an analyte or classifying a sample” (Commonwealth Scientific and Industrial Research Organisation, priority 2012, dated 2022).
One block for each molecule: values may come before it.

Experiments:
[1] = target: GFP^2—MBP—RLuc2 (Escherichia coli, UniProt P0AEX9); experiment: BRET^2 tagged MBP sugar assay, plate reader; format: binding; settings: 0.1 mM maltose
Experimental: 1 μM purified protein was used for all the energy transfer assays (final volume of 100 μL). […] Purified protein was incubated with the sugar dissolved in double deionised water or water for 30 minutes at 28° C.
(§1) BRET ratios were calculated as the ratio of maximum acceptor emission intensity to maximum donor emission intensity.
All data analysis was carried out using GraphPad Prism (version 5 for Windows, Graphpad Software, San Diego, Calif., USA). All data will be reported as means± standard deviation (SD) unless otherwise stated in the text. Two-tailed unpaired t-tests will be performed using Graphpad prism. Statistical significance is defined as p<0.05.

[2] = tested on: GFP^2—MBP—RLuc2 W140A; experiment: BRET^2 tagged MBP W140A mutant, plate reader; format: binding; settings: 0.1 mM maltose
Experimental: The W140 mutation was introduced into pRSET GFP^2—MBP—RLuc2 using site-directed mutagenesis (Stratagene) using primers C1 ([…]) (SEQ ID NO:11) and C2 ([…]) (SEQ ID NO:12). Nucleotide and amino acid sequences for BRET^2 tagged MBP receptor provided a SEQ ID NOs: 3 to 6).
1 μM purified protein was used for all the energy transfer assays (final volume of 100 μL). 1 μM purified protein was prepared by diluting the protein in phosphate buffer solution (PBS, 0.058 M […], 0.017 NaH2PO4, 0.068 M NaCl (pH 7.4)). Purified protein was incubated with the sugar dissolved in double deionised water or water for 30 minutes at 28° C. Following incubation 16.67 μM coelenterazine 400a was added and the signal was recorded immediately.
as §1

[3] = target: T1, FLIPmal-2μ (FRET tagged MBP receptor) (Escherichia coli, UniProt P0AEX9); settings: cited from earlier work
T1 construct: fused on or other part: FRET pair fused to the N- and C-terminus of MBP; From Fehr et al. 2002 these are a cyan and a yellow GFP variant

[4] = tested on: SGSR-113 (BRET^2 tagged str-113); experiment: BRET^2 response of SGSR-113 to volatile ligands, plate based; format: biochemical, C. elegans
Description: (§2) SGSRs are chimaeras of C. elegans str-112, str-113, str-114, str-115, str-116 and str-114/113 with the BRET^2 tags GFP^2 and RLuc or RLuc2 inserted in the third intracellular loop and at the C-terminus, respectively. The positions of the third intracellular loops of STR proteins were predicted using “TMAP” an algorithm from “The Biology Workbench” (a web-based tool for prediction of transmembrane segments http.//seqtool.sdsc.edu). These were named SGSR-112, SGSR-113, SGSR-114/113, SGSR-114, SGSR-115 and SGSR-116.
(§3) Except for SGSR-112, which was commercially synthesised, SGSR expression cassettes were designed and made by introducing multiple restriction sites into the relevant gene-specific PCR primers. PCR products containing those sites were cloned into TOPO PCR vectors (Invitrogen) and then digested with the corresponding restriction enzymes (REs) and ligated into the expression cassettes.
(§4) The inventors selected a number of specific volatiles (including 1-hexanol, 1 butanol, butane-2,3-dione, 3-hydroxybutanone, 2-pentanone and 2 nonanone) for further testing based on GC-MS analysis of the headspace of OP50 bacteria grown on LB. […] This is the first time that a volatile ligand (or indeed any ligand) has been identified for a BRET-based GPCR sensor, in the absence of prior knowledge of the ligand based on research with the unmodified parental GPCR.

[5] = target: SGSR-112 (BRET^2 tagged str-112) (Caenorhabditis elegans, UniProt O16913); experiment: BRET^2 response of SGSR-112 to volatile ligands, plate based; format: biochemical, C. elegans
Sequence of SGSR-112 (BRET^2 tagged str-112) (O16913 entry or part of it): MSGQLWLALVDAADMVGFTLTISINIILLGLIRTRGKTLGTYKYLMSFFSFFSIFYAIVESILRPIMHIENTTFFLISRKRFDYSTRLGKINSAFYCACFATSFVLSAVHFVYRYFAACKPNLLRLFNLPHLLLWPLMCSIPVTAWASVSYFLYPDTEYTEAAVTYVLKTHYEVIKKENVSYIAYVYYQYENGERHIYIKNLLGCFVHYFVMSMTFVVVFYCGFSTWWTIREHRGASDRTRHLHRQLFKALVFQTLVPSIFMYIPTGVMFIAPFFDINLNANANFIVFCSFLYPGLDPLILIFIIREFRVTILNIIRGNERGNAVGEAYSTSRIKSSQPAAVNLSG
Description: as §2, §3, §4

[6] = tested on: SGSR-114/113 (BRET^2 tagged str-114/113 chimera); experiment: BRET^2 response of SGSR-114/113 to volatile ligands, plate based; format: biochemical, C. elegans; settings: for detectable level: in vitro
Description: as §2, §3
The SGSR 114/113 chimera was constructed by modifying C. elegans SGSR-113 (by replacing the first fragment of str-13, 113-1 using the restriction sites NcoI and BspEI in the cassette with the corresponding fragment of str-114, str-114-1). Str114-1 contains the first 720 str-114 nucleotides of, corresponding to its first 240 amino acids and was amplified by high fidelity PCR using primers incorporating the restriction sites, NcoI at the 5′ end and BspEI at the 3′ end.
as §4

[7] = tested on: OGOR2 (ODR-10 receptor fused to RLuc2 and GFP^2); experiment: Diacetyl assay with OGOR2, 96-well plate BRET^2; format: biochemical, C. elegans
Description: (§5) Chimaeric BRET^2 tagged odorant receptors have the BRET^2 components inserted into the third intracellular loop (IC3) and at the C-terminus of the C. elegans odorant receptor with green fluorescent protein, GFP^2 at IC3 and Renilla luciferase, RLuc at the C-terminus of the protein (OGOR). Using site-directed mutagenesis the RLuc2 mutations were introduced into the pYES-DEST-52 OGOR sequence. Primers 1 and 2 (Table 3) were used to introduce the mutation C124A and primer pair 3 and 4 was used to introduce the M185 V mutation to make the construct named OGOR2 (FIG. 18, SEQ ID NO:1, SEQ ID NO-2).
Yeast colonies were inoculated in 10 mL SCMM-U (S. cerevisiae minimal media, composition per 200 mL: 1.34 g […] without amino acids and 0.38 g yeast supplementation media without uracil) supplemented with 2% glucose and incubated overnight at 28° C. An aliquot of the overnight culture was used to inoculate SCMM-U supplemented with 2% raffinose and 2% galactose to a final O.D..600 of 0.4 and incubated for an additional 72 h at 15° C. with shaking at 200 rpm.
Cell cultures were centrifuged at 1500×g for 5 minutes at 4° C. Cells were resuspended in 1 mL of sterile water and centrifuged for 1 minute at 10,000×g. Cells were resuspended in 4 mL phosphate buffer solution (PBS). The cells were lysed by French press (˜18000 psi) and cellular debris was removed by centrifugation at 15000×g (4° C.) for 15 minutes. Following this the supernatant fraction was centrifuged at 40,000 rpm (Beckman Coulter L-80 ultra-centrifuge) for 1 hour at 4° C. The supernatant was decanted and the membrane pellet was resuspended in 1 mL of PBS and stored at 4° C. for 48 hrs.
All ligand solutions were prepared directly in water. The OGOR concentration was normalized using GFP^2 intensity at 510 nm. Assays were carried out in 96-well plates (Perkin-Elmer) in a total volume of 100 μL in phosphate buffered saline. OGOR was incubated with each ligand for 45 minutes at 28° C. in wells sealed with Topseal-A™ (Packard). […]
BRET^2 signals were calculated as the ratio of emission intensity at 515 nm to that at 410 nm. […]

[8] = tested on: OGOR; experiment: Diacetyl assay with original OGOR sensor (native RLuc), microwell; format: biochemical, C. elegans; settings: original OGOR sensor incorporating native RLuc
Description: as §5
All ligand solutions were prepared directly in water. The OGOR concentration was normalized using GFP^2 intensity at 510 nm. Assays were carried out in 96-well plates (Perkin-Elmer) in a total volume of 100 μL in phosphate buffered saline. OGOR was incubated with each ligand for 45 minutes at 28° C. in wells sealed with Topseal-A™ (Packard).
Following the incubation, Coelenterazine 400a substrate (Biosynth) was added to a final concentration of 5 μM.
BRET^2 signals were calculated as the ratio of emission intensity at 515 nm to that at 410 nm. All data are reported as the mean±standard deviation (SD) or mean±standard error of the mean (SEM) as described in the text. […]

[9] = tested on: OGOR2; experiment: Endpoint on-chip microfluidic diacetyl assay with OGOR2; format: biochemical, C. elegans
Experimental: Endpoint microfluidic assays were carried out on-chip in two inlet microfluidic mixer devices integrated with an optical detection chamber. […] OGOR and OGOR2 membrane pellets were resuspended in 1 mL of PBS, diluted as required and incubated at 28° C. for 45 minutes with diacetyl solution at concentrations ranging from 1 aM-1 μM. The preparation was introduced in the second inlet. On-chip mixing was initiated with an input flow rate of 400 μl/hr for each inlet.
(§6) BRET^2 signals were calculated as the ratio of emission intensity at 515 nm to that at 410 nm. All data are reported as the mean±standard deviation (SD) or mean±standard error of the mean (SEM) as described in the text. Curves were fitted with log [agonist] vs response curves with variable slopes following normalization of data, using Graphpad Prism version 5.03 for Windows. Two-tailed unpaired t-tests were carried out in Graphpad prism. Statistical significance was defined as p<0.05.

[10] = tested on: OGOR2; experiment: Real-time on-chip microfluidic diacetyl assay with OGOR2; format: biochemical, C. elegans; settings: 1 fM diacetyl, 290 nM protein, 12.5 μM substrate, flow rates 50, 100, 200 and 300 μl/hr
Experimental: On-chip real-time measurements were carried out in a three-inlet microfluidic mixer device integrated with an optical detection chamber. […] The second inlet contained diacetyl (2,3-butanedione) diluted to give a final concentration of 1 fM in PBS, or PBS only as a control. The third inlet was used to introduce sensor protein suspension, which was prepared by resuspending the membrane pellet describe above in 1 mL of PBS and further diluting as required. The on-chip mixing was initiated by using input flow rates ranging from 50-400 μl/hr.
as §6

[11] = tested on: OGOR2; experiment: Diacetyl detection with highly diluted OGOR2, wide bore chamber and liquid light guide; format: biochemical, C. elegans; settings: 1 μM diacetyl
Experimental: On-chip measurements were carried out with a microfluidic chip similar to that shown in FIG. 31A with two inlets, a passive mixing element and a detection chamber. An aluminium mirror was placed on top of the reaction chamber to enhance the BRET signal.
A number of variations were compared with the original set up (FIG. 31A). The diameter of the reaction chamber was increased to 4 mm (FIG. 34A) from an original diameter of 2 mm. The height of the reaction chamber was varied between 1 and 2 mm. A single optical fiber of diameter 0.4-1.0 mm (FIG. 31A) was replaced with a liquid light guide or fibre-optic bundle of 5 mm core diameter NA=0.59, feeding into a dichroic block (FIG. 34A), or a bifurcated light guide of trunk core diameter 6 mm branch core diameter of 4 mm (FIG. 37) or a multifurcated light guide of trunk core diameter 8 mm and branch core diameter 4 mm (FIGS. 38 and 40).
OGOR2 sensor solution was prepared at day 4 in PBS at high (100 and 50 times) dilution ratios from stock solution. Clz400a was prepared in PBS at 31.25 μM. When diacetyl was included, it was added to the OGOR2 sensor solution at a final concentration of 1 μM. For the control experiment, only DI water was added. The sensor tubes without and with diacetyl were both incubated at 28° C. in 30 min.

Structure (SMILES): OC[C@H]1O[C@H](O[C@H]2[C@H](O)[C@@H](O)C(O)O[C@@H]2CO)[C@H](O)[C@@H](O)[C@@H]1O (mixture of isomers) [maltose]
incubation time at which BRET^2 response reached a maximum [1]: 30 min
BRET^2 response to maltose [2]: abolished
signal change, FRET ([3]; Fehr et al., 2002): ~12%
linear range of FRET response ([3]; two log units): 0.26 to 21.12 µM

Structure (SMILES): CCCCCCO [1-hexanol]
detectable level ([4]; in vitro): parts per billion (nM) levels

Structure (SMILES): CCCC(C)=O [2-pentanone]
EC50 [5]: 0.15 nM
BRET^2 response to volatile ligand ([5]; 1 μM of odorant): tested positive
BRET^2 response to volatile ligand ([4]; 1 μM of odorant): tested positive
BRET^2 response to volatile ligand ([6]; 1 μM of odorant): tested positive
detectable level [6]: parts per billion levels (nM) levels

decrease in BRET^2 signal ([7]; 1 μM diacetyl, microplate wells): 21.4%
EC50 ([7]; microwell plate): 11.4 aM
linear range of dose-dependent response ([7]; microwell plate, six log units): 10^−18 to 10^−12 M
EC50 ([9]; on-chip microfluidic endpoint): ~10 aM
Structure (SMILES): CC(=O)C(C)=O [diacetyl, 2,3-butanedione]
percentage change in BRET^2 signal in response to diacetyl [8]: 32%
decrease in BRET^2 signal ([9]; 10 fM diacetyl, microfluidic endpoint): 36.9%
decrease in BRET^2 ratio [10]: 27.4%
Diacetyl-dependent reduction in BRET^2 ratio ([11]; 50 times sensor dilution): 14.7%
Diacetyl-dependent reduction in BRET^2 ratio ([11]; 100 times sensor dilution): 13.7%
detectable level [6]: parts per quadrillion (sub pM) levels
